Source: patent EP0433683A2, “Use of benzothiazepines as potentiators of anti-cancer drugs” (MARION MERRELL DOW INC., priority 1989, dated 1991)
Structures can show the parent of a compound that is named as a salt.

Assays:
[1] = Anti-depressant activity (AdA), visual observation; type: in vivo; conditions: scale from 0 to 5
Method: Anti-depressant activity (AdA) was determined by visual observation.

[2] = Anticonvulsant activity (AcA), method of Zobrist et al.; type: in vivo; design: key: 0 being no observed activity; 5 being the most active; conditions: scale from 0 to 5
Method: Anticonvulsant activity (AcA) was determined generally by the method of Zobrist et al., European Patent Application EP.... (our ref.: A 634 EP) entitled, "BENZOTHZAZEPINE ANTI-SEIZURE METHOD," and filed on even date herewith; see also US-A-4,879,289.

[3] = Cardiovascular activity (CvA), isolated tissue; conditions: scale from 0 to 5
Method: Cardovascular activity (CvA) was determined by the use of isolated tissue.

[4] = system: VCR-resistant cell line; conditions: nontoxic concentration of diltiazem hydrochloride; cited from earlier work

| Compound | AdA [1] | AcA [2] | CvA [3] | increase in vincristine (VCR) cytotoxicity [4] [fold] |
| --- | --- | --- | --- | --- |
| COc1ccc([C@@H]2Sc3ccccc3N(CCN(C)C)C(=O)[C@@H]2OC(C)=O)cc1 [Diltiazem, d-cis-5-[2-(dimethylamino)ethyl]-2,3-dihydro-3-hydroxy-2-(4-methoxyphenyl)-1,5-benzothiazepin-4(5H)-one acetate (ester), reference compound] | 2 | 5 | – | – |
| CCCCC(=O)O[C@H]1C(=O)N(CCN(C)C)c2ccccc2S[C@H]1c1ccc(OC)cc1.O=C(O)/C=C/C(=O)O [d-cis-ML1013] | – | 0 | 1 | – |
| COc1ccc([C@@H]2Sc3ccccc3N(CCN(C)C)C(=O)[C@@H]2OC(=O)CC(C)C)cc1.O=C(O)/C=C/C(=O)O [d-cis-ML1014] | – | 1 | 1 | – |
| COc1ccc([C@@H]2Sc3ccccc3N(CCN(C(C)C)C(C)C)C(=O)[C@@H]2OC(C)=O)cc1.Cl [d-cis-ML1016] | 1 | 5 | 2 | – |
| COc1ccc([C@@H]2Sc3ccccc3N(CCN(C)C)C(=O)[C@@H]2OC(C)=O)cc1 [diltiazem hydrochloride, Diltiazem hydrochloride] | – | – | – | 54 |
| COc1ccc([C@H]2Sc3ccccc3N(CCN(C)C)C(=O)[C@H]2OC(C)=O)cc1 [l-cis-DTZ] | – | 3 | – | – |
